# Values quoted from earlier work as cited in US20060110359A1, “Cellular delivery of natriuretic peptides” (priority 2002, published 2006).
# Legend:
# brain edema [1] = conditions: for effect on brain edema: experimental brain hemorrhage in rats
# brain edema [2] = conditions: into rat lateral ventricle or intravenously
Structure (SMILES),effect on brain edema (brain edema [1]),brain water and sodium accumulation (brain edema [2]),"brain water and sodium (brain edema [1]; given after a 4-hour delay, 24 hours after hemorrhage, rats)"
Nc1nc2c(nc(Br)n2[C@@H]2O[C@@H]3COP(=O)(O)O[C@H]3[C@H]2O)c(=O)[nH]1 [8-bromo-cGMP],Neither mannitol nor 8-bromo-cGMP affected brain edema,–,–
"CC[C@H](C)[C@@H]1NC(=O)[C@H](CCCNC(=N)N)NC(=O)[C@H](CC(=O)O)NC(=O)[C@H](CCSC)NC(=O)[C@H](CCCNC(=N)N)NC(=O)CNC(=O)CNC(=O)[C@H](Cc2ccccc2)NC(=O)[C@@H](NC(=O)[C@H](CO)NC(=O)[C@H](CO)NC(=O)[C@H](CCCNC(=N)N)NC(=O)[C@H](CCCNC(=N)N)NC(=O)[C@H](CC(C)C)NC(=O)[C@@H](N)CO)CSSC[C@@H](C(=O)N[C@@H](CC(N)=O)C(=O)N[C@@H](CO)C(=O)N[C@@H](Cc2ccccc2)C(=O)N[C@@H](CCCNC(=N)N)C(=O)N[C@@H](Cc2ccc(O)cc2)C(=O)O)NC(=O)CNC(=O)[C@H](CC(C)C)NC(=O)CNC(=O)[C@H](CO)NC(=O)[C@H](CCC(N)=O)NC(=O)[C@H](C)NC(=O)CNC1=O [ANP, atrial natriuretic peptide]",–,inhibit brain water and sodium accumulation,significantly reduced
OC[C@@H](O)[C@@H](O)[C@H](O)[C@H](O)CO [mannitol],Neither mannitol nor 8-bromo-cGMP affected brain edema,–,–
